Data from PubChem BioAssay (NCI).
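All cell lines were grown in 96-well plates and treated with compound for 48 hours. The concentration for 50% growth inhibition is given as GI50. Definition used: TGI = concentration required for complete inhibition of growth.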

Assays:
Assay in all cases: DTP human tumour cell line panel, 48 h; in the data active means GI50 below about 0.43 µM; inactive means the rest
TK-10 renal = test system: TK-10 renal
IGROV1 ovarian = test system: IGROV1 ovarian
HS 578T breast = test system: HS 578T breast
OVCAR-8 ovarian = test system: OVCAR-8 ovarian
MALME-3M melanoma = test system: MALME-3M melanoma
UACC-62 melanoma = test system: UACC-62 melanoma
NCI-H522 lung = test system: NCI-H522 lung
COLO 205 colon = test system: COLO 205 colon
M14 melanoma = test system: M14 melanoma
SW-620 colon = test system: SW-620 colon
SNB-19 CNS = test system: SNB-19 CNS
EKVX NSCLC = test system: EKVX NSCLC
786-0 renal = test system: 786-0 renal
ACHN renal = test system: ACHN renal
RPMI-8226 leukemia = test system: RPMI-8226 leukemia
LOX IMVI melanoma = test system: LOX IMVI melanoma
SK-OV-3 ovarian = test system: SK-OV-3 ovarian
NCI-H23 lung = test system: NCI-H23 lung
K-562 leukemia = test system: K-562 leukemia
PC-3 prostate = test system: PC-3 prostate
RXF 393 renal = test system: RXF 393 renal
OVCAR-3 ovarian = test system: OVCAR-3 ovarian
NCI-H460 lung = test system: NCI-H460 lung
HCC-2998 colon = test system: HCC-2998 colon
U251 CNS = test system: U251 CNS
HOP-62 NSCLC = test system: HOP-62 NSCLC
SR leukemia = test system: SR leukemia
MCF7 breast = test system: MCF7 breast

CN(C)c1cc[n+](/C(NS(=O)(=O)c2cc(C(=O)Nc3ccc(Cl)cc3)c(Cl)cc2[S-])=C(\C#N)C(=O)c2ccccc2)cc1
99.3 µM: TGI (SK-OV-3 ovarian)
67 µM: TGI (HS 578T breast)
> 100 µM: TGI (TK-10 renal) | TGI (IGROV1 ovarian) | TGI (OVCAR-8 ovarian) | TGI (MALME-3M melanoma) | TGI (COLO 205 colon) | TGI (M14 melanoma) | TGI (SW-620 colon) | TGI (SNB-19 CNS) | TGI (786-0 renal) | TGI (ACHN renal) | TGI (RPMI-8226 leukemia) | TGI (LOX IMVI melanoma) | TGI (NCI-H23 lung) | TGI (K-562 leukemia) | TGI (RXF 393 renal) | TGI (U251 CNS) | TGI (HOP-62 NSCLC) | TGI (SR leukemia) | TGI (MCF7 breast)
75.5 µM: TGI (PC-3 prostate)
98.6 µM: TGI (UACC-62 melanoma) | TGI (OVCAR-3 ovarian)
inactive: GI50 (TK-10 renal) 29.1 µM | GI50 (IGROV1 ovarian) 84.7 µM | GI50 (HS 578T breast) 26.1 µM | GI50 (OVCAR-8 ovarian) 39.1 µM | GI50 (MALME-3M melanoma) 31.7 µM | GI50 (UACC-62 melanoma) 29.3 µM | GI50 (NCI-H522 lung) 23.7 µM | GI50 (COLO 205 colon) 30 µM | GI50 (M14 melanoma) 35.6 µM | GI50 (SW-620 colon) 32 µM | GI50 (SNB-19 CNS) 37.7 µM | GI50 (EKVX NSCLC) 29.3 µM | GI50 (786-0 renal) > 100 µM | GI50 (ACHN renal) 50 µM | GI50 (RPMI-8226 leukemia) 40.9 µM | GI50 (LOX IMVI melanoma) 49.7 µM | GI50 (SK-OV-3 ovarian) 36.5 µM | GI50 (NCI-H23 lung) 41.2 µM | GI50 (K-562 leukemia) 89.4 µM | GI50 (PC-3 prostate) 24.9 µM | GI50 (RXF 393 renal) 55.4 µM | GI50 (OVCAR-3 ovarian) 26.6 µM | GI50 (NCI-H460 lung) 14.4 µM | GI50 (HCC-2998 colon) 20.3 µM | GI50 (U251 CNS) 61 µM | GI50 (HOP-62 NSCLC) 69.5 µM | GI50 (SR leukemia) > 100 µM | GI50 (MCF7 breast) 25.1 µM
49.4 µM: TGI (NCI-H460 lung)
57.2 µM: TGI (HCC-2998 colon)
95.9 µM: TGI (EKVX NSCLC)
58.5 µM: TGI (NCI-H522 lung)
